Data: PubChem BioAssay (NCI)
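GI50 is the concentration that inhibits growth by half. Definition used: TGI = concentration required for complete inhibition of growth.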

Experiments:
Assay in all cases: NCI-60 cell line screen, 384-well format
NCI-H322M lung = system: NCI-H322M lung
SR leukemia = system: SR leukemia
EKVX NSCLC = system: EKVX NSCLC
HS 578T breast = system: HS 578T breast
SK-MEL-28 melanoma = system: SK-MEL-28 melanoma
OVCAR-3 ovarian = system: OVCAR-3 ovarian
T-47D breast = system: T-47D breast
CAKI-1 renal = system: CAKI-1 renal
DU-145 prostate = system: DU-145 prostate
OVCAR-5 ovarian = system: OVCAR-5 ovarian
MCF7 breast = system: MCF7 breast
OVCAR-4 ovarian = system: OVCAR-4 ovarian
COLO 205 colon = system: COLO 205 colon
NCI-H460 NSCLC = system: NCI-H460 NSCLC
A549 NSCLC = system: A549 NSCLC
MDA-MB-231 breast = system: MDA-MB-231 breast
BT-549 breast = system: BT-549 breast
UACC-62 melanoma = system: UACC-62 melanoma
786-0 renal = system: 786-0 renal
SF-268 CNS = system: SF-268 CNS
HOP-62 NSCLC = system: HOP-62 NSCLC
MALME-3M melanoma = system: MALME-3M melanoma
U251 glioblastoma = system: U251 glioblastoma
SNB-19 CNS = system: SNB-19 CNS
SK-MEL-2 melanoma = system: SK-MEL-2 melanoma
TK-10 renal = system: TK-10 renal
SN12C renal = system: SN12C renal

SMILES: COc1cc(C(=O)O)ccc1NC(=O)[C@@H]1N[C@@H](CC(C)(C)C)[C@](C#N)(c2ccc(Cl)cc2F)[C@H]1c1cccc(Cl)c1F
- GI50 (NCI-H322M lung): 10.3 µM
- TGI (NCI-H322M lung): 22 µM
- GI50 (SR leukemia): < 0.01 µM
- TGI (SR leukemia): 0.0122 µM
- GI50 (EKVX NSCLC): 5.88 µM
- GI50 (HS 578T breast): 3.75 µM
- TGI (HS 578T breast): 11.9 µM
- GI50 (SK-MEL-28 melanoma): 2.73 µM
- TGI (SK-MEL-28 melanoma): 6.12 µM
- GI50 (OVCAR-3 ovarian): 2.35 µM
- TGI (OVCAR-3 ovarian): 5.27 µM
- GI50 (T-47D breast): 3.16 µM
- GI50 (CAKI-1 renal): 0.0193 µM
- TGI (CAKI-1 renal): 13.7 µM
- GI50 (DU-145 prostate): 5.75 µM
- TGI (DU-145 prostate): 17.5 µM
- GI50 (OVCAR-5 ovarian): 8.12 µM
- TGI (OVCAR-5 ovarian): 20.2 µM
- GI50 (MCF7 breast): 0.0339 µM
- TGI (MCF7 breast): 1.04 µM
- GI50 (OVCAR-4 ovarian): 5.83 µM
- TGI (OVCAR-4 ovarian): 18.3 µM
- GI50 (COLO 205 colon): 5.06 µM
- TGI (COLO 205 colon): 18.1 µM
- GI50 (NCI-H460 NSCLC): 4.31 µM
- TGI (NCI-H460 NSCLC): 14.5 µM
- GI50 (A549 NSCLC): 0.195 µM
- TGI (A549 NSCLC): 4.76 µM
- GI50 (MDA-MB-231 breast): 3.48 µM
- TGI (MDA-MB-231 breast): 12 µM
- GI50 (BT-549 breast): 3.03 µM
- TGI (BT-549 breast): 6.21 µM
- GI50 (UACC-62 melanoma): < 0.01 µM
- TGI (UACC-62 melanoma): 1.44 µM
- GI50 (786-0 renal): 3.54 µM
- TGI (786-0 renal): 13.7 µM
- GI50 (SF-268 CNS): 3.87 µM
- TGI (SF-268 CNS): 12.5 µM
- GI50 (HOP-62 NSCLC): 8.06 µM
- GI50 (MALME-3M melanoma): 0.0869 µM
- TGI (MALME-3M melanoma): 11.9 µM
- GI50 (U251 glioblastoma): 3.68 µM
- GI50 (SNB-19 CNS): 4.3 µM
- TGI (SNB-19 CNS): 14.1 µM
- GI50 (SK-MEL-2 melanoma): 2.69 µM
- TGI (SK-MEL-2 melanoma): 6.28 µM
- GI50 (TK-10 renal): 5.05 µM
- TGI (TK-10 renal): 16.6 µM
- GI50 (SN12C renal): 4.7 µM
